Measured values reported in patent US10597388B2, “Pyridazinone herbicides” (FMC CORPORATION, priority 2014, dated 2020).

Assays:
Test in all cases: Test E greenhouse herbicide test, pre- and postemergence
Type in all cases: in vivo
[1] = test system: arrowleaf sida (Sida rhombifolia)
Procedure, shortened: (§1)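 Compounds in a non-phytotoxic solvent mixture with surfactant were applied preemergence to seeds in silt loam soil and postemergence to 2-18 cm plants (1- to 4-leaf stage) in peat-based medium. After 14 to 21 d in a greenhouse, injury was rated visually against untreated controls on a 0 (no effect) to 100 (complete control) scale.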

[2] = test system: barnyardgrass (Echinochloa crus-galli)
Procedure, shortened: as §1

[3] = test system: corn (Zea mays)
Procedure, shortened: as §1

[4] = test system: crabgrass, Brazilian (Brazilian crabgrass, Digitaria horizontalis)
Procedure, shortened: as §1

[5] = test system: dayflower (Virginia (VA) dayflower, Commelina virginica)
Procedure, shortened: as §1

[6] = test system: field bindweed (Convolvulus arvensis)
Procedure, shortened: as §1

[7] = test system: foxtail, green (green foxtail, Setaria viridis); settings: Preemergence
Procedure, shortened: as §1

[8] = test system: goosegrass (Eleusine indica); settings: Preemergence
Procedure, shortened: as §1

[9] = test system: horseweed (Conyza canadensis); settings: Postemergence
Procedure, shortened: as §1

[10] = test system: lambsquarters (Chenopodium album); settings: Preemergence
Procedure, shortened: as §1

[11] = test system: nightshade (eastern black nightshade, Solanum ptycanthum); settings: Preemergence
Procedure, shortened: as §1

[12] = test system: panicum, fall (fall panicum, Panicum dichotomiflorum)
Procedure, shortened: as §1

[13] = test system: pigweed, palmer (palmer pigweed, Amaranthus palmeri)
Procedure, shortened: as §1

[14] = test system: ragweed (common ragweed, Ambrosia elatior)
Procedure, shortened: as §1

[15] = test system: soybean (Glycine max)
Procedure, shortened: as §1

[16] = test system: surinam grass (Brachiaria decumbens); settings: Preemergence
Procedure, shortened: as §1

[17] = 62 g ai/ha, Postemergence, scale 0 to 100 (0 no effect, 100 complete control)
[18] = 62 g ai/ha, Preemergence, scale 0 to 100 (0 no effect, 100 complete control)
[19] = 125 g ai/ha, Postemergence, scale 0 to 100 (0 no effect, 100 complete control)
[20] = 125 g ai/ha, Preemergence, scale 0 to 100 (0 no effect, 100 complete control)
[21] = 250 g ai/ha, Postemergence, scale 0 to 100 (0 no effect, 100 complete control)
[22] = Postemergence, 31 g ai/ha, visual, scale 0 no effect to 100 complete control
[23] = Preemergence, 31 g ai/ha, scale 0 to 100, 0 no effect, 100 complete control
[24] = Preemergence, 250 g ai/ha, visual, scale 0 no effect to 100 complete control
[25] = 62 g ai/ha, scale 0 to 100 (0 no effect, 100 complete control)
[26] = 125 g ai/ha, scale 0 to 100 (0 no effect, 100 complete control)
[27] = 31 g ai/ha, scale 0 to 100, 0 no effect, 100 complete control
[28] = 250 g ai/ha, visual, scale 0 no effect to 100 complete control

SMILES: Cc1cc(C)c2sc(C)c(-c3c(OC(=O)OCCCl)c(C)nn(C)c3=O)c2c1 [Compound 85]
- Plant response rating, Arrowleaf Sida [1, 17]: 50
- Plant response rating, Arrowleaf Sida [1, 18]: 0
- Plant response rating, Arrowleaf Sida [1, 19]: 50
- Plant response rating, Arrowleaf Sida [1, 20]: 50
- Plant response rating, Arrowleaf Sida [1, 21]: 50
- Plant response rating, Arrowleaf Sida [1, 22]: 40
- Plant response rating, Arrowleaf Sida [1, 23]: 0
- Plant response rating, Arrowleaf Sida [1, 24]: 70
- Plant response rating, Barnyardgrass [2, 17]: 30
- Plant response rating, Barnyardgrass [2, 18]: 0
- Plant response rating, Barnyardgrass [2, 19]: 20
- Plant response rating, Barnyardgrass [2, 20]: 30
- Plant response rating, Barnyardgrass [2, 21]: 30
- Plant response rating, Barnyardgrass [2, 22]: 20
- Plant response rating, Barnyardgrass [2, 23]: 0
- Plant response rating, Barnyardgrass [2, 24]: 35
- Plant response rating, Corn [3, 17]: 0
- Plant response rating, Corn [3, 18]: 0
- Plant response rating, Corn [3, 19]: 0
- Plant response rating, Corn [3, 20]: 0
- Plant response rating, Corn [3, 21]: 5
- Plant response rating, Corn [3, 22]: 0
- Plant response rating, Corn [3, 23]: 0
- Plant response rating, Corn [3, 24]: 0
- Plant response rating, Crabgrass, Brazil [4, 17]: 30
- Plant response rating, Crabgrass, Brazil [4, 18]: 50
- Plant response rating, Crabgrass, Brazil [4, 19]: 50
- Plant response rating, Crabgrass, Brazil [4, 20]: 80
- Plant response rating, Crabgrass, Brazil [4, 21]: 50
- Plant response rating, Crabgrass, Brazil [4, 22]: 15
- Plant response rating, Crabgrass, Brazil [4, 23]: 10
- Plant response rating, Crabgrass, Brazil [4, 24]: 90
- Plant response rating, Dayflower, VA [5, 17]: 60
- Plant response rating, Dayflower, VA [5, 18]: 0
- Plant response rating, Dayflower, VA [5, 19]: 60
- Plant response rating, Dayflower, VA [5, 20]: 30
- Plant response rating, Dayflower, VA [5, 21]: 80
- Plant response rating, Dayflower, VA [5, 22]: 50
- Plant response rating, Dayflower, VA [5, 23]: 0
- Plant response rating, Dayflower, VA [5, 24]: 75
- Plant response rating, Field Bindweed [6, 17]: 50
- Plant response rating, Field Bindweed [6, 18]: 5
- Plant response rating, Field Bindweed [6, 19]: 60
- Plant response rating, Field Bindweed [6, 20]: 20
- Plant response rating, Field Bindweed [6, 21]: 90
- Plant response rating, Field Bindweed [6, 22]: 50
- Plant response rating, Field Bindweed [6, 24]: 95
- Plant response rating, Foxtail, Green [7, 25]: 25
- Plant response rating, Foxtail, Green [7, 26]: 15
- Plant response rating, Foxtail, Green [7, 27]: 0
- Plant response rating, Foxtail, Green [7, 28]: 100
- Plant response rating, Goosegrass [8, 25]: 5
- Plant response rating, Goosegrass [8, 26]: 5
- Plant response rating, Goosegrass [8, 27]: 5
- Plant response rating, Goosegrass [8, 28]: 20
- Plant response rating, Horseweed [9, 25]: 85
- Plant response rating, Horseweed [9, 26]: 85
- Plant response rating, Horseweed ([9]; 250 g ai/ha, scale 0 to 100 (0 no effect, 100 complete control)): 90
- Plant response rating, Horseweed ([9]; 31 g ai/ha, visual, scale 0 no effect to 100 complete control): 60
- Plant response rating, Lambsquarters [10, 25]: 100
- Plant response rating, Lambsquarters [10, 26]: 100
- Plant response rating, Lambsquarters [10, 27]: 70
- Plant response rating, Lambsquarters [10, 28]: 100
- Plant response rating, Nightshade [11, 25]: 95
- Plant response rating, Nightshade [11, 26]: 100
- Plant response rating, Nightshade [11, 27]: 95
- Plant response rating, Nightshade [11, 28]: 100
- Plant response rating, Panicum, Fall [12, 17]: 75
- Plant response rating, Panicum, Fall [12, 18]: 85
- Plant response rating, Panicum, Fall [12, 19]: 80
- Plant response rating, Panicum, Fall [12, 20]: 98
- Plant response rating, Panicum, Fall [12, 21]: 95
- Plant response rating, Panicum, Fall [12, 22]: 75
- Plant response rating, Panicum, Fall [12, 23]: 95
- Plant response rating, Panicum, Fall [12, 24]: 100
- Plant response rating, Pigweed, Palmer [13, 17]: 80
- Plant response rating, Pigweed, Palmer [13, 18]: 30
- Plant response rating, Pigweed, Palmer [13, 19]: 80
- Plant response rating, Pigweed, Palmer [13, 20]: 50
- Plant response rating, Pigweed, Palmer [13, 21]: 80
- Plant response rating, Pigweed, Palmer [13, 22]: 65
- Plant response rating, Pigweed, Palmer [13, 23]: 25
- Plant response rating, Pigweed, Palmer [13, 24]: 90
- Plant response rating, Ragweed [14, 17]: 50
- Plant response rating, Ragweed [14, 18]: 80
- Plant response rating, Ragweed [14, 19]: 60
- Plant response rating, Ragweed [14, 20]: 90
- Plant response rating, Ragweed [14, 21]: 85
- Plant response rating, Ragweed [14, 22]: 50
- Plant response rating, Ragweed [14, 23]: 60
- Plant response rating, Ragweed [14, 24]: 98
- Plant response rating, Soybean [15, 18]: 0
- Plant response rating, Soybean [15, 19]: 5
- Plant response rating, Soybean [15, 20]: 0
- Plant response rating, Soybean [15, 21]: 15
- Plant response rating, Soybean [15, 22]: 0
- Plant response rating, Soybean [15, 23]: 0
- Plant response rating, Soybean [15, 24]: 0
- Plant response rating, Surinam Grass [16, 25]: 70
- Plant response rating, Surinam Grass [16, 26]: 70
- Plant response rating, Surinam Grass [16, 27]: 60
- Plant response rating, Surinam Grass [16, 28]: 90
